Assay: xn = mol fraction of the nth substance listed
Conditions: 298.15 K, 101 kPa

CC[NH2+]CC.O=S(=O)([O-])O + O
Conditions | speed of sound [m/s] | viscosity [mPa·s]
x2 = 0.1212 | 1426 | 30.4
x2 = 0.2183 | 1429 | 29.6
x2 = 0.2979 | 1433 | 30.1
x2 = 0.3644 | 1436 | 31
x2 = 0.4207 | 1437 | 31.3
x2 = 0.5476 | 1443 | 32.3
x2 = 0.6578 | 1441 | 31.4
x2 = 0.6979 | 1440 | 30.2
x2 = 0.7314 | 1439 | 28.8
x2 = 0.7841 | 1437 | 26
x2 = 0.8051 | 1438 | 24.6
x2 = 0.8673 | 1439 | 19.3
x2 = 0.9079 | 1444 | 15.14
x2 = 0.9233 | 1448 | 13.51
x2 = 0.9424 | 1454 | 11.06
x2 = 0.9622 | 1461 | 8.48
x2 = 0.9741 | 1468 | 6.19

O + CC[NH+](CC)CC.O=S(=O)([O-])O
x1 = 1
Conditions | speed of sound [m/s] | viscosity [mPa·s]
– | 1496 | 0.89

CC[NH+](CC)CC.O=S(=O)([O-])O + O
Conditions | speed of sound [m/s] | viscosity [mPa·s]
x2 = 0 | 1874 | 235
x2 = 0.1228 | 1828 | 210
x2 = 0.2209 | 1819 | 195
x2 = 0.3679 | 1836 | 176
x2 = 0.4728 | 1844 | 162
x2 = 0.5147 | 1843 | 156
x2 = 0.6613 | 1795 | 129
x2 = 0.7011 | 1772 | 120
x2 = 0.7866 | 1702 | 95.2
x2 = 0.8075 | 1677 | 87.3
x2 = 0.869 | 1616 | 63.1
x2 = 0.9091 | 1581 | 48.8
x2 = 0.9432 | 1542 | 29.5
x2 = 0.9627 | 1526 | 19.9
x2 = 0.9743 | 1507 | 14.14

O + CC[NH2+]CC.O=S(=O)([O-])O
x1 = 1
Conditions | speed of sound [m/s] | viscosity [mPa·s]
– | 1496 | 0.89

O + CC(=O)[O-].CC[NH2+]CC
Conditions | speed of sound [m/s]
x1 = 1 | 1496

O + C[NH+](C)C.O=S(=O)([O-])O
x1 = 1
Conditions | speed of sound [m/s] | viscosity [mPa·s]
– | 1496 | 0.89

CC(=O)[O-].CC[NH2+]CC + O
Conditions | speed of sound [m/s]
x2 = 0 | 1608
x2 = 0.0881 | 1602
x2 = 0.1637 | 1599
x2 = 0.2293 | 1598
x2 = 0.2866 | 1597
x2 = 0.3373 | 1596
x2 = 0.459 | 1594
x2 = 0.5741 | 1589
x2 = 0.6182 | 1585
x2 = 0.6562 | 1581
x2 = 0.7179 | 1572
x2 = 0.7433 | 1568
x2 = 0.8208 | 1551
x2 = 0.8735 | 1538
x2 = 0.8941 | 1532
x2 = 0.9197 | 1524
x2 = 0.9468 | 1516
x2 = 0.9634 | 1510

C[NH+](C)C.O=S(=O)([O-])O + O
Conditions | speed of sound [m/s] | viscosity [mPa·s]
x2 = 0 | 1564 | 5.1
x2 = 0.1369 | 1553 | 4.86
x2 = 0.1942 | 1555 | 4.74
x2 = 0.2919 | 1558 | 4.53
x2 = 0.3723 | 1562 | 4.34
x2 = 0.4691 | 1565 | 4.05
x2 = 0.5219 | 1564 | 3.88
x2 = 0.6073 | 1556 | 3.54
x2 = 0.6734 | 1541 | 3.22
x2 = 0.7012 | 1531 | 3.08
x2 = 0.7878 | 1502 | 2.58
x2 = 0.8724 | 1472 | 2.01
x2 = 0.9027 | 1470 | 1.76
x2 = 0.9352 | 1466 | 1.49

CC(=O)[O-].C[NH+](C)C + O
Conditions | speed of sound [m/s] | viscosity [mPa·s]
x1 = 0.0451 | 1499 | 1.199
x1 = 0.0651 | 1503 | 1.31
x1 = 0.0978 | 1504 | 1.5
x1 = 0.1283 | 1507 | 1.64
x1 = 0.1524 | 1510 | 1.75
x1 = 0.2133 | 1517 | 1.99
x1 = 0.3002 | 1525 | 2.24
x1 = 0.328 | 1527 | 2.31
x1 = 0.3943 | 1532 | 2.43
x1 = 0.4341 | 1534 | 2.48
x1 = 0.4797 | 1535 | 2.52
x1 = 0.5325 | 1537 | 2.56
x1 = 0.6292 | 1538 | 2.61
x1 = 0.7094 | 1539 | 2.62
x1 = 0.7556 | 1540 | 2.63
x1 = 0.9278 | 1542 | 2.69
x1 = 1 | 1544 | 2.76
